The text below walks through data of paper PMC10745768, “Stereoselective Synthesis and Antiproliferative Activity of Steviol-Based Diterpene 1,3-Aminoalcohol Regioisomers” (Molecules, 2023).

The term inhibition denotes the relative decrease from the control value, in per cent. As a reminder, the IC50 is the midpoint of a concentration-inhibition curve. What is called melting point is the temperature of the solid-liquid transition.

One series deals with NIH/3T3 fibroblast cells. The series can be described thus: MTT assay on non-malignant fibroblasts (selectivity). Format: cell-based, murine. To be noted: Mus musculus, NIH3T3; for inhibition at 10 µM: NIH/3T3, 10 μM; for inhibition at 10 µM / inhibition at 30 µM: 72 h, read-out: Growth inhibition (%) ± SEM; for inhibition at 30 µM: NIH/3T3, 30 μM. The procedure:
(§1) The in vitro anticancer effects of the presented compounds were assessed using the standard MTT [3-(4,5-dimethylthiazol2-yl)-2,5-diphenyltetrazolium bromide] assay on the following human cancer cell lines: cervical (HeLa and SiHa), breast (MCF-7 and MDA-MB-231) and ovarian cancer (A2780). The selectivity of the tested compounds was determined on murine embryonal fibroblast cells (NIH/3T3). The utilised cell lines were purchased from the European Collection of Cell Cultures (Salisbury, UK). The cells were cultivated in Eagle’s minimal essential medium supplemented with 10% fetal bovine serum, 1% non-essential amino acids and 1% antibiotic-antimycotic complex (penicillin, streptomycin, amphotericin B) at 37 °C in a humidified atmosphere containing 5% CO2. All media and supplements were purchased from Lonza Group Ltd. (Basel, Switzerland). The cancer cells were seeded into 96-well plates (5000 cells/well) and incubated overnight, and the test compounds were applied in two different concentrations (10 µM and 30 µM) and incubated for another 72 h under cell-culturing conditions. […] After 72 h, 20 µL of the 5 mg/mL MTT solution was added to each well, and the plates were incubated for 4 h. The medium was removed, and the formazan crystals produced by the mitochondrial activity were dissolved in dimethyl sulfoxide (DMSO) via shaking at 37 °C for 30 min. The absorbances were measured at 545 nm using a microplate reader (SPECTROStar Nano, BMG Labtech, Offenburg, Germany). The reference agent was cisplatin, which is a widely used cytotoxic agent. The IC50 values were calculated using sigmoid curve fitting. Two independent experiments were performed with five parallel wells for each condition. Calculations were performed using the GraphPad Prism 9 software (GraphPad Software Inc., San Diego, CA, USA).
For orientation: Tetrazolium dyes change colour on reduction, which living cells bring about.

Another series concerns A2780 cells. The series can be described thus: MTT antiproliferative assay, A2780. Format: cell-based. As to conditions: Homo sapiens; for inhibition at 10 µM: A2780, 10 μM; for inhibition at 10 µM / inhibition at 30 µM: 72 h, read-out: Growth inhibition (%) ± SEM; for inhibition at 30 µM: A2780, 30 μM. The procedure:
as §1

In a further series the test system is MDA-MB-231 cells. The series can be described thus: MTT antiproliferative assay, MDA-MB-231. Format: cell-based. To be noted: Homo sapiens; for inhibition at 10 µM: MDA-MB-231, 10 μM; for inhibition at 10 µM / inhibition at 30 µM: 72 h, read-out: Growth inhibition (%) ± SEM; for inhibition at 30 µM: MDA-MB-231, 30 μM. The procedure:
as §1

In another series the test system is MCF-7 cells. The series can be described thus: MTT antiproliferative assay, MCF-7. It counts as cell-based. As to conditions: Homo sapiens, MCF7; for inhibition at 10 µM: MCF-7, 10 μM; for inhibition at 10 µM / inhibition at 30 µM: 72 h, read-out: Growth inhibition (%) ± SEM; for inhibition at 30 µM: MCF-7, 30 μM. The procedure:
as §1

A further series concerns SiHa cells. The series can be described thus: MTT antiproliferative assay, SiHa. Format: cell-based. To be noted: Homo sapiens, 72 h; for inhibition at 10 µM / inhibition at 30 µM: read-out: Growth inhibition (%) ± SEM. The procedure: as §1
In another series the test system is HeLa cells. The series can be described thus: MTT antiproliferative assay, HeLa. It counts as cell-based. As to conditions: Homo sapiens, 72 h; for inhibition at 10 µM / inhibition at 30 µM: read-out: Growth inhibition (%) ± SEM. The procedure:
as §1

`COC(=O)[C@]1(C)CCC[C@@]2(C)[C@@H]3CC[C@@]4(CO)C[C@]3(CC[C@@H]21)C[C@H]4N[C@H](C)c1ccc2ccccc2c1` [Compound 17, (4R,4aS,6aR,8R,9R,11aR,11bS)-Methyl 9-(hydroxymethyl)-4,11b-dimethyl-8-(((R)-1-(naphthalen-2-yl)ethyl)amino)tetradecahydro-6a,9-methanocyclohepta[a]naphthalene-4-carboxylate] returned a melting point of 150 to 153 °C. In the series on NIH/3T3 fibroblast cells, the inhibition at 10 µM was 20.5 ± 1.7% and the inhibition at 30 µM was determined as 96.54 ± 0.62%. Moreover, in the series with NIH/3T3 fibroblast cells (NIH/3T3, 72 h, read-out: calculated IC50), the 50% inhibitory concentration (IC50) is 8.7 µM. For the same molecule, the 50% inhibitory concentration (IC50) in the series with A2780 cells (A2780, 72 h, read-out: calculated IC50) was 4.06 µM. In the series with A2780 cells, the inhibition at 10 µM turned out to be 100.6 ± 0.76% and the inhibition at 30 µM is 100 ± 0.91%. In the series with MDA-MB-231 cells (MDA-MB-231, 72 h, read-out: calculated IC50), the IC50 is 5.62 µM. Also, in the series on MDA-MB-231 cells, the inhibition at 10 µM was 91.5 ± 1.24% and the inhibition at 30 µM worked out at 95.03 ± 0.91%. Further, in the series on MCF-7 cells, the inhibition at 10 µM turned out to be 86.3 ± 2.86% and the inhibition at 30 µM came out at 97.42 ± 0.71%. In addition, the half-inhibitory concentration (IC50) in the series with MCF-7 cells (MCF-7, 72 h, read-out: calculated IC50) is 2.47 µM. Moreover, in the series with SiHa cells, the inhibition at 10 µM came out at 83.3 ± 1.58% and the inhibition at 30 µM was determined as 86.7 ± 1.74%. Moreover, the IC50 with SiHa cells (read-out: calculated IC50) was 5.37 µM. Further, in the series on HeLa cells, the inhibition at 10 µM was 90.5 ± 1.34% and the inhibition at 30 µM came to 93.5 ± 2.5%. Further, in the series on HeLa cells (read-out: calculated IC50), the IC50 was 3.51 µM.
Turning to `COC(=O)[C@]1(C)CCC[C@@]2(C)[C@@H]3CC[C@@]4(Cn5cc(-c6ccccc6)nn5)C[C@]3(CC[C@@H]21)CC4=O` [Compound 33, (4R,4aS,6aR,9S,11aR,11bS)-Methyl 4,11b-dimethyl-8-oxo-9-((4-phenyl-1H-1,2,3-triazol-1-yl)methyl)tetradecahydro-6a,9-methanocyclohepta[a]naphthalene-4-carboxylate], the melting point was 137 to 140 °C. Also, in the series on NIH/3T3 fibroblast cells, the inhibition at 10 µM stood at 54.5 ± 1.93% and the inhibition at 30 µM came out at 78.9 ± 2.52%. Besides, in the series on A2780 cells, the inhibition at 10 µM came to 41.1 ± 1.23% and the inhibition at 30 µM was determined as 51.5 ± 1.41%. Moreover, in the series with MDA-MB-231 cells, the inhibition at 10 µM is below 20% and the inhibition at 30 µM was below 20%. Besides, in the series with MCF-7 cells, the inhibition at 10 µM amounted to 57.1 ± 2.13% and the inhibition at 30 µM was determined as 60.3 ± 3.65%. Besides, in the series with SiHa cells, the inhibition at 10 µM is below 20% and the inhibition at 30 µM was below 20%. Also, in the series with HeLa cells, the inhibition at 10 µM is below 20% and the inhibition at 30 µM stood at 23.9 ± 5.01%.
Turning to `COC(=O)[C@]1(C)CCC[C@@]2(C)[C@@H]3CC[C@@]4(CN[C@@H](C)c5ccc6ccccc6c5)C[C@]3(CC[C@@H]21)C[C@H]4O` [Compound 30, (4R,4aS,6aR,8R,9S,11aR,11bS)-Methyl 8-hydroxy-4,11b-dimethyl-9-((((S)-1-(naphthalen-2-yl)ethyl)amino)methyl)tetradecahydro-6a,9-methanocyclohepta[a]naphthalene-4-carboxylate], the melting point lay within 102 to 106 °C. Moreover, in the series with NIH/3T3 fibroblast cells, the inhibition at 10 µM was found to be 21.5 ± 0.48% and the inhibition at 30 µM came to 100.7 ± 0.2%. In addition, in the series on A2780 cells, the inhibition at 10 µM was 33.1 ± 1.23% and the inhibition at 30 µM amounted to 99.71 ± 0.27%. Moreover, in the series with MDA-MB-231 cells, the inhibition at 10 µM stood at 50.7 ± 3.21% and the inhibition at 30 µM was 98.7 ± 0.49%. In the series on MCF-7 cells, the inhibition at 10 µM is 79.5 ± 1.01% and the inhibition at 30 µM came out at 95.63 ± 0.55%. Further, in the series with SiHa cells, the inhibition at 10 µM was below 20% and the inhibition at 30 µM worked out at 101.4 ± 0.6%. In the series with HeLa cells, the inhibition at 10 µM was 40.8 ± 0.99% and the inhibition at 30 µM was 94.51 ± 0.19%.
The molecule `CC[C@@H](N[C@@H]1C[C@]23CC[C@H]4[C@@](C)(CCC[C@@]4(C)C(=O)OC)[C@@H]2CC[C@@]1(CO)C3)c1ccccc1` [Compound 12, (4R,4aS,6aR,8R,9R,11aR,11bS)-Methyl 9-(hydroxymethyl)-4,11b-dimethyl-8-(((R)-1-phenylpropyl)amino)tetradecahydro-6a,9-methanocyclohepta[a]naphthalene-4-carboxylate] yielded a melting point of 174 to 176 °C. Moreover, in the series with NIH/3T3 fibroblast cells, the inhibition at 10 µM is 29.2 ± 1.33% and the inhibition at 30 µM was determined as 95.53 ± 0.49%. For the same molecule, in the series on A2780 cells, the inhibition at 10 µM was 64.7 ± 1.95% and the inhibition at 30 µM was found to be 98.32 ± 0.23%. Besides, in the series on MDA-MB-231 cells, the inhibition at 10 µM was below 20% and the inhibition at 30 µM stood at 91.6 ± 2.36%. Also, in the series on MCF-7 cells, the inhibition at 10 µM amounted to 48.6 ± 0.5% and the inhibition at 30 µM worked out at 92.3 ± 2.89%. Moreover, in the series with SiHa cells, the inhibition at 10 µM is below 20% and the inhibition at 30 µM came to 82.4 ± 2.09%. Also, in the series on HeLa cells, the inhibition at 10 µM is below 20% and the inhibition at 30 µM worked out at 90.8 ± 3.71%.
Regarding `COC(=O)[C@]1(C)CCC[C@@]2(C)[C@@H]3CC[C@@]4(CNCc5ccccc5)C[C@]3(CC[C@@H]21)C[C@H]4O` [Compound 22, (4R,4aS,6aR,8R,9S,11aR,11bS)-Methyl 9-((benzylamino)methyl)-8-hydroxy-4,11b-dimethyltetradecahydro-6a,9-methanocyclohepta[a]naphthalene-4-carboxylate], the melting point fell in the range of 98 to 104 °C. In the series with NIH/3T3 fibroblast cells, the inhibition at 10 µM came to 49 ± 1.37% and the inhibition at 30 µM stood at 94.25 ± 0.45%. Also, in the series with A2780 cells, the inhibition at 10 µM is 69.5 ± 3.98% and the inhibition at 30 µM was 96.04 ± 0.45%. In the series with MDA-MB-231 cells, the inhibition at 10 µM was 90.95 ± 0.4% and the inhibition at 30 µM was 89.66 ± 0.28%. In the series on MCF-7 cells, the inhibition at 10 µM turned out to be 90.6 ± 0.98% and the inhibition at 30 µM worked out at 94.23 ± 0.82%. Also, in the series with SiHa cells, the inhibition at 10 µM amounted to 69 ± 2.02% and the inhibition at 30 µM stood at 80.8 ± 2.91%. In the series with HeLa cells, the inhibition at 10 µM turned out to be 59.2 ± 6.61% and the inhibition at 30 µM worked out at 90.87 ± 0.35%.
Take `CC[C@@H](NC[C@@]12CC[C@@H]3[C@@](CC[C@H]4[C@@]3(C)CCC[C@@]4(C)C(=O)OC)(C[C@H]1O)C2)c1ccccc1` [Compound 24, (4R,4aS,6aR,8R,9S,11aR,11bS)-Methyl 8-hydroxy-4,11b-dimethyl-9-((((R)-1-phenylpropyl)amino)methyl)tetradecahydro-6a,9-methanocyclohepta[a]naphthalene-4-carboxylate]: the inhibition at 10 µM in the series on NIH/3T3 fibroblast cells was 21.8 ± 2.15%; in the series with A2780 cells it was below 20%; in the series with MDA-MB-231 cells, below 20%; with MCF-7 cells, 34.8 ± 1.99%; in the series on SiHa cells, below 20%; in the series on HeLa cells, below 20%. The inhibition at 30 µM in the series on NIH/3T3 fibroblast cells came out at 97.69 ± 0.87%; in the series with A2780 cells, 99.28 ± 0.52%; with MDA-MB-231 cells, 97.6 ± 1.01%; in the series with MCF-7 cells, 93.6 ± 0.94%; in the series on SiHa cells, 78.1 ± 1.56%; with HeLa cells, 96.56 ± 0.88%.
For the molecule `COC(=O)[C@]1(C)CCC[C@@]2(C)[C@@H]3CC[C@@]4(CN[C@@H](C)c5cccc6ccccc56)C[C@]3(CC[C@@H]21)C[C@H]4O` [Compound 27, (4R,4aS,6aR,8R,9S,11aR,11bS)-Methyl 8-hydroxy-4,11b-dimethyl-9-((((S)-1-(naphthalen-1-yl)ethyl)amino)methyl)tetradecahydro-6a,9-methanocyclohepta[a]naphthalene-4-carboxylate], the inhibition at 10 µM in the series with NIH/3T3 fibroblast cells was below 20%; with A2780 cells, 59 ± 1.68%; with MDA-MB-231 cells it was 67.2 ± 1.94%; in the series on MCF-7 cells, 79.6 ± 2.89%; in the series on SiHa cells it was below 20%; with HeLa cells, below 20%. In addition, the inhibition at 30 µM turned out to be 94 ± 1.64% in the series on NIH/3T3 fibroblast cells; 98.92 ± 0.22% with A2780 cells; 93.69 ± 0.42% with MDA-MB-231 cells; 97.63 ± 0.31% in the series on MCF-7 cells; 86.9 ± 2.27% in the series on SiHa cells; 96.38 ± 0.83% in the series on HeLa cells.
